Assay results taken from US10336762B2 (priority 2017, dated 2019).
Like-named read-outs stand apart in the source and are kept apart here.

Tests used:
[1] = system: TNFα; assay: cells; type: cell-based, human; settings: Homo sapiens, Monocyte, LPS-stimulated human monocytes, read-out: EC50 TNF
[2] = target: IRAK4 enzyme (Homo sapiens (Human), UniProt Q9NWZ3); assay: biochemical; type: biochemical; settings: IRAK4 enzyme, 500 μM ATP
Chain of IRAK4 enzyme (Q9NWZ3 whole entry): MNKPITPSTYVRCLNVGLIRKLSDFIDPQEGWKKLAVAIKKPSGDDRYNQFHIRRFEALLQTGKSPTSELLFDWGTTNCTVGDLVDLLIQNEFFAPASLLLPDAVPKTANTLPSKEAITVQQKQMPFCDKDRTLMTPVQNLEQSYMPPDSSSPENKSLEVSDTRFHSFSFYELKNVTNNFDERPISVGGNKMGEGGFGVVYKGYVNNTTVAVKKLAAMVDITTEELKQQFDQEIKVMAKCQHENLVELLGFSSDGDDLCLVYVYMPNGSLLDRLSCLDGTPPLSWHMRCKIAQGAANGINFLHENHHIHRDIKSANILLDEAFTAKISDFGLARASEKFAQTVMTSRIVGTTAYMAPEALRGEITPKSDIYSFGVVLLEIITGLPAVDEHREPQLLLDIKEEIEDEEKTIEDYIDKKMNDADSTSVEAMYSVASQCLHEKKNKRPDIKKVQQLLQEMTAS

| Structure (SMILES) | EC50 ([1]; TNFα by TR-FRET) [nM] | IC50 ([2]; TR-FRET) [nM] | EC50 ([1]; TNFα content) [nM] | IC50 ([2]; TR-FRET (HTRF)) [nM] |
| --- | --- | --- | --- | --- |
| C[C@H](NC(=O)c1cnc(-c2ccc3cc(C#N)cnn23)cc1NC12CCC(O)(CC1)CC2)C(=O)N1CCOCC1 [Example 943, (S)-6-(3-cyano-pyrrolo[1,2-b]pyridazin-7-yl)-4-((4-hydroxy-bicyclo[2.2.2]octan-1-yl)amino)-N-(1-morpholino-1-oxopropan-2-yl) nicotinamide] | 836 | 35 |  |  |
| COC1CN(C(=O)C23CCC(Nc4cc(-c5ccc6cc(C#N)cnn56)ncc4C(=O)NC[C@@H](F)C(C)(C)O)(CC2)CC3)C1 [Example 396, (R)-6-(3-cyanopyrrolo[1,2-b]pyridazin-7-yl)-N-(2-fluoro-3-hydroxy-3-methylbutyl)-4-((4-(3-methoxyazetidine-1-carbonyl)bicyclo[2.2.2]octan-1-yl)amino) nicotinamide] |  | 1 | 24 |  |
| CC(C)(O)[C@H](F)CNC(=O)c1cnc(-c2ccc3cc(C#N)cnn23)cc1N[C@@H]1CCOC[C@@H]1F [Example 57, 6-(3-cyanopyrrolo[1,2-b]pyridazin-7-yl)-N-((R)-2-fluoro-3-hydroxy-3-methylbutyl)-4-(((3R,4R)-3-fluorotetrahydro-2H-pyran-4-yl)amino)nicotinamide] |  | < 1 | 46 |  |
| COC(=O)N1CC2(CC(Nc3cc(-c4ccc5cc(C#N)cnn45)ncc3C(=O)NC[C@@H](F)C(C)(C)O)C2)C1 [Example 897, (R)-methyl 6-((2-(3-cyano-pyrrolo[1,2-b]pyridazin-7-yl)-5-((2-fluoro-3-hydroxy-3-methylbutyl)carbamoyl)pyridin-4-yl)amino)-2-azaspiro[3.3]heptane-2-carboxylate] | 421 | 2 |  |  |
| CNC(=O)c1ccc(Nc2cc(-c3ccc4cc(C#N)cnn34)ncc2C(=O)NC[C@@H](F)C(C)(C)O)cn1 [Example 579, (R)-5-((2-(3-cyano-pyrrolo[1,2-b]pyridazin-7-yl)-5-((2-fluoro-3-hydroxy-3-methylbutyl)carbamoyl)pyridin-4-yl)amino)-N-methylpicolinamide] |  |  | 75 | < 1 |
| CNc1ccc(Nc2cc(-c3ccc4cc(C#N)cnn34)ncc2C(=O)NC[C@@H](F)C(C)(C)O)cn1 [Example 661, (R)-6-(3-cyanopyrrolo[1,2-b]pyridazin-7-yl)-N-(2-fluoro-3-hydroxy-3-methylbutyl)-4-((6-(methylamino)pyridin-3-yl)amino)nicotinamide] |  |  | 19 | < 1 |
| CC(C)(O)[C@H](F)CNC(=O)c1cnc(-c2ccc3cc(C#N)cnn23)cc1Nc1ccc(-c2ccon2)nc1 [Example 775, (R)-6-(3-cyanopyrrolo[1,2-b]pyridazin-7-yl)-N-(2-fluoro-3-hydroxy-3-methylbutyl)-4-((6-(isoxazol-3-yl)pyridin-3-yl)amino)nicotinamide] |  |  | 25 | < 1 |
| CC(C)Nc1cc(-c2ccc3cc(C#N)cnn23)ncc1C(=O)N[C@H]1CC[C@H](C(C)(C)O)CC1 [Example 3, 6-(3-cyanopyrrolo[1,2-b]pyridazin-7-yl)-N-((1r,4r)-4-(2-hydroxypropan-2-yl)cyclohexyl)-4-(isopropylamino)nicotinamide] |  | < 1 | 62 |  |
| CC(C)(O)[C@H](F)CNC(=O)c1cnc(-c2ccc3cc(C#N)cnn23)cc1Nc1cncc(OCC(F)(F)F)c1 [Example 857, (R)-6-(3-cyanopyrrolo[1,2-b]pyridazin-7-yl)-N-(2-fluoro-3-hydroxy-3-methylbutyl)-4-((5-(2,2,2-trifluoroethoxy)pyridin-3-yl)amino)nicotinamide] | 9 | < 1 |  |  |
| CC(C)Nc1cc(-c2ccc3cc(C#N)cnn23)ncc1C(=O)NNC(=O)C(C)(C)O [Example 66, 6-(3-cyanopyrrolo[1,2-b]pyridazin-7-yl)-N′-(2-hydroxy-2-methylpropanoyl)-4-(isopropylamino) nicotinohydrazide] |  | 46 | 458 |  |
| CNC(=O)c1cnc(-c2ccc3cc(C#N)cnn23)cc1N[C@H]1CC[C@@H](C(=O)NC)C1 [Example 465, 6-(3-cyanopyrrolo[1,2-b]pyridazin-7-yl)-N-methyl-4-(((1S,3R)-3-(methyl-carbamoyl)cyclopentyl)amino)nicotinamide] |  |  | 411 | 8 |
| COC(=O)NCc1ccc(Nc2cc(-c3ccc4cc(C#N)cnn34)ncc2C(=O)NC[C@@H](F)C(C)(C)O)cc1F [Example 834, (R)-methyl (4-((2-(3-cyano-pyrrolo[1,2-b]pyridazin-7-yl)-5-((2-fluoro-3-hydroxy-3-methylbutyl)carbamoyl)pyridin-4-yl)amino)-2-fluorobenzyl)carbamate] | 23 | < 1 |  |  |
| N#Cc1cnn2c(-c3cc(NC45CCC(O)(CC4)CC5)c(C(=O)NCC(=O)N4CCC(F)(F)C4)cn3)ccc2c1 [Example 798, 6-(3-cyanopyrrolo[1,2-b]pyridazin-7-yl)-N-(2-(3,3-difluoropyrrolidin-1-yl)-2-oxoethyl)-4-((4-hydroxybicyclo[2.2.2]octan-1-yl)amino) nicotinamide] | 42 | 1 |  |  |
| CC(C)(O)[C@H](F)CNC(=O)c1cnc(-c2ccc3cc(C#N)cnn23)cc1Nc1nc(C(F)(F)F)cs1 [Example 374, (R)-6-(3-cyanopyrrolo[1,2-b]pyridazin-7-yl)-N-(2-fluoro-3-hydroxy-3-methylbutyl)-4-((4-(trifluoromethyl)thiazol-2-yl)amino)nicotinamide] |  | 1 | 327 |  |
| CC(=O)NC12CC(Nc3cc(-c4ccc5cc(C#N)cnn45)ncc3C(=O)NC3CCC(C(=O)N4CCOCC4)CC3)(C1)C2 (centres unmarked) [Example 477, 4-((3-acetamido-bicyclo[1.1.1]pentan-1-yl)amino)-6-(3-cyano-pyrrolo[1,2-b]pyridazin-7-yl)-N-((1r,4r)-4-(morpholine-4-carbonyl)cyclohexyl) nicotinamide] |  |  | 98 | 1 |
| CC(C)(O)[C@H](F)CNC(=O)c1cnc(-c2ccc3cc(C#N)cnn23)cc1NC12CCC(NC(=O)C3CC3)(CC1)CC2 [Example 281, (R)-6-(3-cyanopyrrolo[1,2-b]pyridazin-7-yl)-4-((4-(cyclopropanecarboxamido)bicyclo[2.2.2]octan-1-yl)amino)-N-(2-fluoro-3-hydroxy-3-methylbutyl) nicotinamide] |  | 1 | 37 |  |
| CC(C)Nc1cc(-c2ccc3cc(C#N)cnn23)ncc1C(=O)N[C@@H]1CCOC1 [Example 37, (R)-6-(3-cyanopyrrolo[1,2-b]pyridazin-7-yl)-4-(isopropylamino)-N-(tetrahydrofuran-3-yl) nicotinamide] |  | 12 | 283 |  |
| CC(C)(O)[C@H](F)CNC(=O)c1cnc(-c2ccc3cc(C#N)cnn23)cc1Nc1ccc(-c2cnco2)cc1 [Example 216, (R)-6-(3-cyanopyrrolo[1,2-b]pyridazin-7-yl)-N-(2-fluoro-3-hydroxy-3-methylbutyl)-4-((4-(oxazol-5-yl)phenyl)amino) nicotinamide] |  | < 1 | 32 |  |
| COC(=O)N1CC[C@H](CNC(=O)c2cnc(-c3ccc4cc(C#N)cnn34)cc2NC23CCC(O)(CC2)CC3)C1 [Example 741, (R)-methyl 3-((6-(3-cyano-pyrrolo[1,2-b]pyridazin-7-yl)-4-((4-hydroxybicyclo[2.2.2]octan-1-yl)amino)nicotin-amido)methyl)pyrrolidine-1-carboxylate] |  |  | 124 | < 1 |
| CNC(=O)C1CCC(Nc2cc(-c3ccc4cc(C#N)cnn34)ncc2C(=O)NC[C@@H](F)C(C)(C)O)CC1 (stereo partly drawn) [Example 182, 6-(3-cyanopyrrolo[1,2-b]pyridazin-7-yl)-N-((R)-2-fluoro-3-hydroxy-3-methylbutyl)-4-(((1r,4R)-4-(methylcarbamoyl)cyclohexyl)amino) nicotinamide] |  | 1 | 70 |  |
| CC(C)(F)CNC(=O)c1cnc(-c2ccc3cc(C#N)cnn23)cc1NC12CCC(O)(CC1)CC2 [Example 740, 6-(3-cyanopyrrolo[1,2-b]pyridazin-7-yl)-N-(2-fluoro-2-methylpropyl)-4-((4-hydroxybicyclo[2.2.2]octan-1-yl)amino) nicotinamide] |  |  | 265 | 4 |
| CC(C)(CCNC(=O)c1cnc(-c2ccc3cc(C#N)cnn23)cc1NC12CCC(O)(CC1)CC2)NC(=O)OC(C)(C)C [Example 347, tert-butyl (4-(6-(3-cyanopyrrolo[1,2-b]pyridazin-7-yl)-4-((4-hydroxybicyclo[2.2.2]octan-1-yl)amino)nicotinamido)-2-methyl-butan-2-yl)carbamate] |  | 2 | 45 |  |
| CC(C)(O)[C@H](F)CNC(=O)c1cnc(-c2ccc3cc(C#N)cnn23)cc1Nc1cncnc1 [Example 145, (R)-6-(3-cyanopyrrolo[1,2-b]pyridazin-7-yl)-N-(2-fluoro-3-hydroxy-3-methylbutyl)-4-(pyrimidin-5-ylamino)nicotinamide] |  | < 1 | 70 |  |
| N#Cc1cnn2c(-c3cc(Nc4cnc5c(c4)OCCO5)c(C(=O)N[C@H]4CC[C@H](NC(=O)C5CC5)CC4)cn3)ccc2c1 [Example 858, 6-(3-cyanopyrrolo[1,2-b]pyridazin-7-yl)-N-((1r,4r)-4-(cyclopropanecarboxamido)cyclohexyl)-4-((2,3-dihydro-[1,4]dioxino[2,3-b]pyridin-7-yl)amino)nicotinamide] | 20 | < 1 |  |  |
| CC(C)(O)[C@H](F)CNC(=O)c1cnc(-c2ccc3cc(C#N)cnn23)cc1Nc1ccc(-c2nc[nH]n2)cc1 [Example 175, (R)-4-((4-(1H-1,2,4-triazol-3-yl)phenyl)amino)-6-(3-cyanopyrrolo[1,2-b]pyridazin-7-yl)-N-(2-fluoro-3-hydroxy-3-methylbutyl)nicotinamide] |  | < 1 | 20 |  |
